What was measured:
[1] = system: σ receptors; test: Isolated organ bioassay, field-stimulated vas deferens: test for agonist activity; design: species or system guinea pig; conditions: mean, n=2
Method: (§1) Segments of guinea pig vas deferens were suspended in 20-ml organ baths containing an oxygenated (95% O2 and 5% CO2) and pre-warmed (37° C.) physiological salt solution of the following composition (in mM): NaCl 118.0, KCl 4.7, MgSO4 1.2, CaCl2 2.5, KH2PO4 1.2, NaHCO3 25.0 and glucose 11.0 (pH 7.4). Yohimbine (1 μM), (−) sulpiride (1 μM), atropine (1 μM) and naloxone (1 μM) were also present throughout the experiments to block the α2-adrenergic, dopamine D2, muscarinic and opioid receptors, respectively. The tissues were connected to force transducers for isometric tension recordings. They were stretched to a resting tension of 0.5 g, allowed to equilibrate for at least 30 min during which time they were washed repeatedly and the tension readjusted. Thereafter, they were stimulated electrically using a constant current stimulator.
The tissues were exposed to a submaximal concentration of the reference agonist (+) SKF-10047 (100 μM) to verify responsiveness and to obtain a control response. Following washings and recovery of the twitch contraction amplitude, the tissues were exposed to increasing concentrations of substance or the same agonist. The different concentrations were added cumulatively and each was left in contact with the tissues until a stable response was obtained or for a maximum of 15 min. If an agonist-like response (enhancement of twitch contractions) was obtained, the reference antagonist rimcazole (10 μM) was tested against the highest concentration of substance to confirm the involvement of the σ receptors in this response.
(§2) The parameter measured was the maximum change in the twitch contraction amplitude induced by each compound concentration. The results are expressed as a percent variation of the control twitch contraction amplitude (mean values). The effects of substance tested at 1.0 10^−6 M, 3.0 10^−6 M and 1.0 10^−5 M for agonist and antagonist activities at the σ receptors in the guinea pig vas deferens bioassay are summarized in Tables 6-7 where those of the reference compounds are also reported.

[2] = target: T1, 5-HT transporter (Homo sapiens, UniProt P31645); test: Serotonergic transporter binding ([3H]imipramine); conditions: [3H]imipramine 2 nM, HEK-293 recombinant, read-out: percentage inhibition at 10 μM of control specific binding to the serotonergic transporter
T1 construct: expressed in transfected cells; host or cells: HEK-293
Method: The serotonergic 5-HT transporter was isolated from human recombinant HEK-293 cells according to the method described by Tatsumi et al. (1997), Pharmacological profile of antidepressants and related compounds at human monoamine transporters, Eur. J. Pharmacol., 340: 249-258.
Serotonergic transporter binding was determined by a radioligand method using tritium-labelled imipramine (2 nM) as substrate (Tatsumi et al., 1999). Ligand radioactivity was determined by liquid scintillation counting. Ligand incubations were carried out for thirty minutes at 22° C. The experiment was conducted in duplicate.
The specific ligand binding to the serotonergic transporter was defined as the difference between the total binding and the non specific binding determined in presence of an excess of unlabelled ligand. The results obtained are presented in Table 3 hereinbelow and are expressed as percent of control specific binding and as a percent inhibition of control specific binding obtained in presence of 10 μM of substance.

[3] = target: T2, PDE2 (Homo sapiens, UniProt O00408); test: Inhibition of PDE2 (radioenzymatic phosphodiesterase assay); assay type: biochemical; conditions: Table 1, 1 μM cyclic AMP
T2 construct: PDE2 was isolated from human platelets, provided by Etablissement Français du Sang-Alsace; tissue Etablissement Français du Sang-Alsace; host or cells: human platelets
Method: 2.1.1. Isolation of Phosphodiesterases from Smooth Muscle A 3 g segment of bovine aortic media cut into pieces with scissors was homogenized with an ultra-turrax then a potter glass/glass homogenizer in 7 volumes by weight of buffer A containing a protease inhibitor cocktail (20 mM Tris-HCl, 0.25 M saccharose, 2 mM magnesium acetate, 1 mM dithiothreitol, 5 mM EGTA, 2000 U/ml aprotinin, 10 mg/l leupeptin and 10 mg/l soya trypsic inhibitor). The homogenizate was centrifuged at 105,000 g for 1 hour. The supernatant was loaded on a DEAE-Sephacel column (15×1.6 cm) pre-equilibrated with buffer B (buffer A without the saccharose, EGTA and protease inhibitors). The column was washed until there was no detectable absorption at 280 nm, then eluted with a linear gradient of NaCl (0-0.5 M) in buffer B. 3-ml fractions were collected and enzyme activity was determined under the conditions described hereinbelow to localize the different enzymes PDE1, PDE3, PDE4 and PDE5 which were aliquoted and frozen at −80° C. (Lugnier et al., Biochem. Phamacol., 1986, 35: 1746-1751). PDE2 was isolated from human platelets, provided by Etablissement Français du Sang-Alsace, according to Kameni Tcheudji J F et al., (J. Mol. Biol. 2001; 310: 181-791), and stored until use at −80° C. in small aliquots.
Cyclic nucleotide phosphodiesterase activity was determined by a radioenzymatic method using tritium-labelled cyclic GMP or AMP (1 μM) as substrate (Lugnier et al., 1986). ^3H-labelled adenosine or guanosine monophosphate formed by hydrolysis of the radiolabelled cyclic nucleotide was then converted to ^3H-labelled adenosine or guanosine in a second reaction with […] in excess. The nucleoside formed was separated from the nucleotides by anion exchange chromatography. Nucleoside radioactivity was determined by liquid scintillation counting. Enzymatic incubations were carried out under conditions allowing no more than 15% hydrolysis of the substrate; each point was performed in duplicate.
The concentration of substance which inhibits enzymatic activity by 50% (IC50) at 1 μM cyclic AMP was calculated by nonlinear regression from the experimental values of hydrolysis rate (Prism, GraphPad).

[4] = system: σ receptors; test: Isolated organ bioassay, field-stimulated vas deferens: test for antagonist activity; design: species or system guinea pig; conditions: mean, n=2
Method: as §1
The tissues were exposed to a submaximal concentration of the reference agonist (+) SKF-10047 (100 μM) to obtain a control response. After stabilization of the (+) SKF-10047-induced response, increasing concentrations of substance or the reference antagonist rimcazole were added cumulatively. Each concentration was left in contact with the tissues until a stable response was obtained or for a maximum of 15 min. If it occurred, an inhibition of the (+) SKF-10047-induced increase in twitch contraction amplitude by substance indicated an antagonist activity at the σ receptors.
as §2

T2 sequence (O00408 whole entry): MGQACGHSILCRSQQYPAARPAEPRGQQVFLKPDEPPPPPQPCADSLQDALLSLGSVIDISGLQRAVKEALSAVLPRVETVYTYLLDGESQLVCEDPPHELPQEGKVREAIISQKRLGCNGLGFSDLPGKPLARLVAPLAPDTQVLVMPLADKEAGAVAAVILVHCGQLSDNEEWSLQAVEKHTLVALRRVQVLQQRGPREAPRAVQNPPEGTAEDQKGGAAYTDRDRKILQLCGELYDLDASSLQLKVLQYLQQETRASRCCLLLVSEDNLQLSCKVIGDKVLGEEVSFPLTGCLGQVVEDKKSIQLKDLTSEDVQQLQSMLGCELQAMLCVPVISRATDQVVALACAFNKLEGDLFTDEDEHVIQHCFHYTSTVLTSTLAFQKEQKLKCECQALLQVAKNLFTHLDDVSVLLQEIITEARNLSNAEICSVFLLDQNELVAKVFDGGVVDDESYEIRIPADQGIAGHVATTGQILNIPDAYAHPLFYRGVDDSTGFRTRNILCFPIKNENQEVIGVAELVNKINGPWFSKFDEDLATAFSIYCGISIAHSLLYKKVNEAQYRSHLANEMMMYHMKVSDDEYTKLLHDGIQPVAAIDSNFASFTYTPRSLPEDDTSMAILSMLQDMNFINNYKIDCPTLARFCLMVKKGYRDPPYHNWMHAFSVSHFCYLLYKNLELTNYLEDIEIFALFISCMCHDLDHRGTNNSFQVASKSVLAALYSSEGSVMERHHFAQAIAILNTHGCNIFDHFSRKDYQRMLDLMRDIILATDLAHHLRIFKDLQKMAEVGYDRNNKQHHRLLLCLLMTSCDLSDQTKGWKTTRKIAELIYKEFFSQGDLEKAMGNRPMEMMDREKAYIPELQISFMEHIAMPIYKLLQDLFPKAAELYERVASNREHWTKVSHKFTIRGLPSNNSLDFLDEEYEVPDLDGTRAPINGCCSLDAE
T1 sequence (P31645 whole entry): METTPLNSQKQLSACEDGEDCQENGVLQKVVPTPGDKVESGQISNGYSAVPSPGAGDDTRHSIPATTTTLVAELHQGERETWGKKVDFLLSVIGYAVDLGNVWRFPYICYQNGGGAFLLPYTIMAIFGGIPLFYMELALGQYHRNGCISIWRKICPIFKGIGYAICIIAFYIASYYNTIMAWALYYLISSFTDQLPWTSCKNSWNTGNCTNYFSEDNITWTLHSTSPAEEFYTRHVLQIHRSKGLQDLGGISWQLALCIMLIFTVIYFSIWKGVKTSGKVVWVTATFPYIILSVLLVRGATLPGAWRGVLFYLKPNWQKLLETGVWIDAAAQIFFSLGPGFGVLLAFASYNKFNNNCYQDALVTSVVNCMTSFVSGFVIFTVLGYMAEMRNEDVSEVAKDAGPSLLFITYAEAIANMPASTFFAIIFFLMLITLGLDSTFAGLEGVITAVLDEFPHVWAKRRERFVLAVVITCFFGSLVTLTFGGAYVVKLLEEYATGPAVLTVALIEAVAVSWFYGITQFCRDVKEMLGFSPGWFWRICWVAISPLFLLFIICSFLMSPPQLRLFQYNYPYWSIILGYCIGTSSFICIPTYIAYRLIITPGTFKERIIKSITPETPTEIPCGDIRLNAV

## COc1cc2c(c(OC)c1-c1ccccc1)C(c1cccc(C(N)=O)c1)=NCC(=O)N2C [Compound 17, 3-(6,8-Dimethoxy-1-methyl-2-oxo-7-phenyl-2,3-dihydro-1H-benzo[e][1,4]diazepin-5-yl)-benzamide]
[1]; 1.0 10^−5 M
  Response to the compound, variation of twitch contraction amplitude: +33%
[1]; 1.0 10^−6 M
  Response to the compound, variation of twitch contraction amplitude: 0%
[1]; 3.0 10^−6 M
  Response to the compound, variation of twitch contraction amplitude: 0%
[1]; highest compound concentration plus rimcazole 1.0 10^−5 M
  Response to the highest concentration of the compound +Rimcazole (1.0 10^−5 M): −9%
[2]
  inhibition at 10 µM: 98%
[3]; 10 μM compound, read-out: PDE2 percentage inhibition at 10 μM
  inhibition at 10 µM: 80%
[3]; value in square brackets, read-out: PDE2 IC50
  IC50: 800 nM
[4]; compound 1.0 10^−5 M
  Response to (+)SKF-10,047 (1.0 10^−4 M) in the presence of the compound: +169%
[4]; compound 1.0 10^−6 M
  Response to (+)SKF-10,047 (1.0 10^−4 M) in the presence of the compound: +139%
[4]; compound 3.0 10^−6 M
  Response to (+)SKF-10,047 (1.0 10^−4 M) in the presence of the compound: +139%

— patent US20090215752A1, “Compounds, preparation and therapeutic use thereof” (priority 2005, published 2009)
